Data reported in US20250122191A1, “COMPOUNDS AS BCL-2 INHIBITORS” (Fochon Biosciences, Ltd, priority 2021, published 2025).

System: RS4;11-BCL-2 D103E cells
Experiment: Cell proliferation assay (MTS), RS4;11-BCL-2 D103E engineered cells
Assay type: cell-based
Conditions: Homo sapiens, 72 h, read-out: RS4, 11 BCL2-D103E IC50
From the text: MTS testing kit was purchased from Promega (Madison, WI, USA). The RPMI-1640, Fetal bovine serum and Penicillin-Streptomycin were purchased from BI (Biological Industries, Beit Haemek, Israel). Puromycin was purchased from Beyotime (shanghai, China). Dimethyl sulfoxide (DMSO) was purchased from Sigma (St. Louis., MO, USA). RS4;11-BCL-2 G101V (Cobioer Lot. #: CBD2021063013P4), RS4;11-BCL-2 D103E (Cobioer Lot. #: CBD2021063013P4), RS4;11-BCL-2 D103Y (Cobioer Lot. #: CBD2022012101P4) and RS4;11-BCL-2 F104L (Cobioer Lot. #: CBD2021063014P4) cells were cultured in RPMI1640 supplemented with 1 ug/mL puromycin, 100 U/mL Penicillin-Streptomycin and 10% FBS.
To investigate whether a compound is able to inhibit the activity of BCL-2 mutation in cells, a mechanism-based assay using engineered cell lines stably overexpressing BCL-2 mutation (RS4;11-BCL-2 G101V, RS4;11-BCL-2 D103E, RS4;11-BCL-2 D103Y, and RS4;11-BCL-2 F104L) was developed. In this assay, the inhibition of BCL-2 mutation was reflected by the inhibition of cell proliferation of engineered RS4;11 cells. Cells were plated into 96-well plates at optimized cell density (RS4;11-BCL-2 G101V: 5000 cells/well; RS4;11-BCL-2 D103E: 7500 cells/well; RS4;11-BCL-2 D103Y: 7500 cells/well; RS4;11-BCL-2 F104L: 5000 cells/well). Plates were incubated at 37° C., with 5% CO2 for 4 h (RS4;11-BCL-2 G101V, RS4;11-BCL-2 F104L) and 24 h (RS4;11-BCL-2 D103E, RS4;11-BCL-2 D103Y), respectively. Compounds were serially diluted and added to the plates with the final concentrations of 10000, 3333.3, 1111.1, 370.4, 123.5, 41.2, 13.7, 4.6 and 1.5 nM. Plates were incubated at 37° C., with 5% CO2 for 120 h (RS4; 11-BCL-2 G101V, RS4; 11-BCL-2 F104L) and 72 h (RS4;11-BCL-2 D103E, RS4;11-BCL-2 D103Y), respectively. 20 μl MTS was added into each well and the plates were incubated at 37° C., with 5% CO2 exactly for 2 h. The absorbance was measured by a microplate reader at 490 nm. IC50 values were calculated using GraphPad Prism 8.0 software.

Q: Which IC50 does the source give for `COc1nc2[nH]cc(F)c2cc1Oc1cc(N2CCC3(CC2)CC(N2CCN(Cc4ccnc(O)c4)C[C@H]2c2ccccc2C(C)C)C3)ccc1C(=O)NS(=O)(=O)c1cnc(NC[C@H]2CC[C@](C)(O)CC2)c([N+](=O)[O-])c1` [Example 199, 2-((3-fluoro-6-methoxy-1H-pyrrolo[2,3-b]pyridin-5-yl)oxy)-N-((6-((((1r,4r)-4-hydroxy-4-methylcyclohexyl)methyl)amino)-5-nitropyridin-3-yl)sulfonyl)-4-(2-((R)-4-((2-hydroxypyridin-4-yl)methyl)-2-(2-isopropylphenyl)piperazin-1-yl)-7-azaspiro[3.5]nonan-7-yl)benzamide] here?
A: 1 nM

Q: For `COc1nc2[nH]cc(F)c2cc1Oc1cc(N2CCC3(CC2)CC(N2CCN(Cc4ccnc5c4OCO5)C[C@H]2c2ccccc2C(C)C)C3)ccc1C(=O)NS(=O)(=O)c1cnc(NC[C@H]2CC[C@](C)(O)CC2)c([N+](=O)[O-])c1` [Example 189, 4-(2-((R)-4-([1,3]dioxolo[4,5-b]pyridin-7-ylmethyl)-2-(2-isopropylphenyl)piperazin-1-yl)-7-azaspiro[3.5]nonan-7-yl)-2-((3-fluoro-6-methoxy-1H-pyrrolo[2,3-b]pyridin-5-yl)oxy)-N-((6-((((1r,4r)-4-hydroxy-4-methylcyclohexyl)methyl)amino)-5-nitropyridin-3-yl)sulfonyl)benzamide], which IC50 is on record?
A: 1 nM

Q: `[2H]C([2H])([2H])Oc1cc(CN2CCN(C3CC4(CCN(c5ccc(C(=O)NS(=O)(=O)c6cnc(NC[C@H]7CC[C@](C)(O)CC7)c([N+](=O)[O-])c6)c(Oc6cc7c(F)c[nH]c7nc6OC)c5)CC4)C3)[C@H](c3ccccc3C(C)C)C2)ccn1` [Example 164, 2-((3-fluoro-6-methoxy-1H-pyrrolo[2,3-b]pyridin-5-yl)oxy)-N-((6-((((1r,4r)-4-hydroxy-4-methylcyclohexyl)methyl)amino)-5-nitropyridin-3-yl)sulfonyl)-4-(2-((R)-2-(2-isopropylphenyl)-4-((2-(methoxy-d3)pyridin-4-yl)methyl)piperazin-1-yl)-7-azaspiro[3.5]nonan-7-yl)benzamide] was tested. Which IC50 did it give?
A: 1 nM

Q: Which IC50 does the source give for `COc1nc2[nH]cc(F)c2cc1Oc1cc(N2CCC3(CC2)CC(N2CCN(Cc4ccnc5c4OC(C)CN5)C[C@H]2c2ccccc2C(C)C)C3)ccc1C(=O)NS(=O)(=O)c1cnc(NC[C@H]2CC[C@](C)(O)CC2)c([N+](=O)[O-])c1` (stereo partly drawn) [Example 196, 2-((3-fluoro-6-methoxy-1H-pyrrolo[2,3-b]pyridin-5-yl)oxy)-N-((6-((((1r,4r)-4-hydroxy-4-methylcyclohexyl)methyl)amino)-5-nitropyridin-3-yl)sulfonyl)-4-(2-((2R)-2-(2-isopropylphenyl)-4-((2-methyl-3,4-dihydro-2H-pyrido[3,2-b][1,4]oxazin-8-yl)methyl)piperazin-1-yl)-7-azaspiro[3.5]nonan-7-yl)benzamide] here?
A: 1 nM

Q: How did the IC50 turn out when `COc1nccc(CN2CCN(C3CC4(CCN(c5ccc(C(=O)NS(=O)(=O)c6cnc(NC[C@H]7CC[C@](C)(O)CC7)c([N+](=O)[O-])c6)c(Oc6cc7c(F)c[nH]c7nc6OC)c5)CC4)C3)[C@H](c3ccccc3C(C)C)C2)n1` [Example 165, 2-((3-fluoro-6-methoxy-1H-pyrrolo[2,3-b]pyridin-5-yl)oxy)-N-((6-((((1r,4r)-4-hydroxy-4-methylcyclohexyl)methyl)amino)-5-nitropyridin-3-yl)sulfonyl)-4-(2-((R)-2-(2-isopropylphenyl)-4-((2-methoxypyrimidin-4-yl)methyl)piperazin-1-yl)-7-azaspiro[3.5]nonan-7-yl)benzamide] was run?
A: 1 nM

Q: For `COc1nc2[nH]cc(F)c2cc1Oc1cc(N2CCC3(CC2)CC(N2CCN(Cc4ccnc5c4OCCO5)C[C@H]2c2ccccc2C(C)C)C3)ccc1C(=O)NS(=O)(=O)c1cnc(NC[C@H]2CC[C@](C)(O)CC2)c([N+](=O)[O-])c1` [Example 191, 4-(2-((R)-4-((2,3-dihydro-[1,4]dioxino[2,3-b]pyridin-8-yl)methyl)-2-(2-isopropylphenyl)piperazin-1-yl)-7-azaspiro[3.5]nonan-7-yl)-2-((3-fluoro-6-methoxy-1H-pyrrolo[2,3-b]pyridin-5-yl)oxy)-N-((6-((((1r,4r)-4-hydroxy-4-methylcyclohexyl)methyl)amino)-5-nitropyridin-3-yl)sulfonyl)benzamide], which IC50 is on record?
A: 1 nM

Q: Which IC50 does the source give for `COc1nc2[nH]cc(F)c2cc1Oc1cc(N2CCC3(CC2)CC(N2CCN(Cc4ccnc(C(C)(F)F)c4)C[C@H]2c2ccccc2C(C)C)C3)ccc1C(=O)NS(=O)(=O)c1cnc(NC[C@H]2CC[C@](C)(O)CC2)c([N+](=O)[O-])c1` [Example 149, 4-(2-((R)-4-((2-(1,1-difluoroethyl)pyridin-4-yl)methyl)-2-(2-isopropylphenyl)piperazin-1-yl)-7-azaspiro[3.5]nonan-7-yl)-2-((3-fluoro-6-methoxy-1H-pyrrolo[2,3-b]pyridin-5-yl)oxy)-N-((6-((((1r,4r)-4-hydroy-4-methylcyclohexyl)methyl)amino)-5-nitropyridin-3-yl)sulfonyl)benzamide] here?
A: 1 nM

Q: With `COc1nc2[nH]cc(F)c2cc1Oc1cc(N2CCC3(CC2)CC(N2CCN(C4CCC(O)CC4)C[C@H]2c2ccccc2C(C)C)C3)ccc1C(=O)NS(=O)(=O)c1cnc(NC[C@H]2CC[C@](C)(O)CC2)c([N+](=O)[O-])c1` (single isomer, unassigned) [Example 331] as the compound, how does the IC50 read?
A: 1 nM

Q: How did the IC50 turn out when `COc1cc(CN2CCN(C3CC4(CCN(c5ccc(C(=O)NS(=O)(=O)c6cnc(OC[C@H]7CC[C@](C)(O)CC7)c([N+](=O)[O-])c6)c(Oc6cc7c(F)c[nH]c7nc6OC)c5)CC4)C3)[C@H](c3ccccc3C(C)C)C2)ccn1` [Example 261, 2-((3-fluoro-6-methoxy-1H-pyrrolo[2,3-b]pyridin-5-yl)oxy)-N-((6-(((1r,4r)-4-hydroxy-4-methylcyclohexyl)methoxy)-5-nitropyridin-3-yl)sulfonyl)-4-(2-((R)-2-(2-isopropylphenyl)-4-((2-methoxypyridin-4-yl)methyl)piperazin-1-yl)-7-azaspiro [3.5]nonan-7-yl)benzamide] was run?
A: 2 nM

Q: `COC1CCC(N2CCN(C3CC4(CCN(c5ccc(C(=O)NS(=O)(=O)c6cnc(NC[C@H]7CC[C@](C)(O)CC7)c([N+](=O)[O-])c6)c(Oc6cnc7[nH]cc(F)c7c6)c5)CC4)C3)[C@H](c3ccccc3C(C)C)C2)CC1` (stereo partly drawn) [Example 326, 2-((3-fluoro-1H-pyrrolo[2,3-b]pyridin-5-yl)oxy)-N-((6-((((1r,4r)-4-hydroxy-4-methylcyclohexyl)methyl)amino)-5-nitropyridin-3-yl)sulfonyl)-4-(2-((R)-2-(2-isopropylphenyl)-4-(4-methoxycyclohexyl)piperazin-1-yl)-7-azaspiro[3.5]nonan-7-yl)benzamide] was tested. Which IC50 did it give?
A: 1 nM

System: RS4;11-BCL-2 G101V cells
Experiment: Cell proliferation assay (MTS), RS4;11-BCL-2 G101V engineered cells
Assay type: cell-based
Conditions: Homo sapiens, 120 h, read-out: RS4, 11 BCL2-G101V IC50
How it was run: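 Cells were plated, allowed to settle 4 h (G101V, F104L) or 24 h (D103E, D103Y), and treated with serially diluted compound (10000 down to 1.5 nM). After 120 h or 72 h respectively at 37 °C, MTS was added for 2 h and absorbance at 490 nm gave IC50 values.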

Q: How did the IC50 turn out when `CCOc1nc2[nH]cc(F)c2cc1Oc1cc(N2CCC3(CC2)CC(N2CCN(Cc4ccnc(OC)c4)C[C@H]2c2ccccc2C(C)C)C3)ccc1C(=O)NS(=O)(=O)c1cnc(NC[C@H]2CC[C@](C)(O)CC2)c([N+](=O)[O-])c1` [Example 241, 2-((6-ethoxy-3-fluoro-1H-pyrrolo[2,3-b]pyridin-5-yl)oxy)-N-((6-((((1r,4r)-4-hydroxy-4-methylcyclohexyl)methyl)amino)-5-nitropyridin-3-yl)sulfonyl)-4-(2-((R)-2-(2-isopropylphenyl)-4-((2-methoxypyridin-4-yl)methyl)piperazin-1-yl)-7-azaspiro[3.5]nonan-7-yl)benzamide] was run?
A: 1 nM

System: Toledo cells
Experiment: Cell proliferation assay (MTS), Toledo cells
Assay type: cell-based
Conditions: Homo sapiens, 72 h
How it was run: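 Toledo cells (RPMI-1640, 10% FBS) seeded at 30000 cells/well, rested 4 h, then exposed 72 h at 37 °C, 5% CO2 to compound at nine final concentrations, 1.5–10000 nM. Viability by MTS (2 h), absorbance at 490 nm. IC50 from the concentration-response.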

Q: `CCOc1nc2[nH]cc(F)c2cc1Oc1cc(N2CCC3(CC2)CC(N2CCN(Cc4ccnc(OC)c4)C[C@H]2c2ccccc2C(C)C)C3)ccc1C(=O)NS(=O)(=O)c1cnc(NC[C@H]2CC[C@](C)(O)CC2)c([N+](=O)[O-])c1` [Example 241, 2-((6-ethoxy-3-fluoro-1H-pyrrolo[2,3-b]pyridin-5-yl)oxy)-N-((6-((((1r,4r)-4-hydroxy-4-methylcyclohexyl)methyl)amino)-5-nitropyridin-3-yl)sulfonyl)-4-(2-((R)-2-(2-isopropylphenyl)-4-((2-methoxypyridin-4-yl)methyl)piperazin-1-yl)-7-azaspiro[3.5]nonan-7-yl)benzamide] was tested. Which IC50 did it give?
A: 1 nM
